Measurements from ChEMBL document CHEMBL1156278, “Novel benzothiophene H1-antihistamines for the treatment of insomnia” (Bioorg Med Chem Lett, 2010).

Legend:
[1] = target: Cytochrome P450 3A4 (Homo sapiens, UniProt P08684); assay: Inhibition of recombinant CYP3A4 after 30 mins by fluorescence assay
[2] = target: T1, Voltage-gated inwardly rectifying potassium channel KCNH2 (Homo sapiens, UniProt Q12809); assay: Displacement of [3H]Dofetilide from human ERG
[3] = target: Histamine H1 receptor (Homo sapiens, UniProt P35367); assay: Displacement of [3H]pyrilamine from human histamine H1 receptor expressed in CHO Flp-In cells after 90 mins by scintillation counting; type: cell-based
[4] = target: T2, Muscarinic acetylcholine receptor M1 (Homo sapiens, UniProt P11229); assay: Displacement of [3H]N-methylscopolamine from human muscarinic M1 receptor expressed in CHO Flp-In cells after 90 mins by scintillation counting; type: cell-based
T2 sequence (P11229 whole entry): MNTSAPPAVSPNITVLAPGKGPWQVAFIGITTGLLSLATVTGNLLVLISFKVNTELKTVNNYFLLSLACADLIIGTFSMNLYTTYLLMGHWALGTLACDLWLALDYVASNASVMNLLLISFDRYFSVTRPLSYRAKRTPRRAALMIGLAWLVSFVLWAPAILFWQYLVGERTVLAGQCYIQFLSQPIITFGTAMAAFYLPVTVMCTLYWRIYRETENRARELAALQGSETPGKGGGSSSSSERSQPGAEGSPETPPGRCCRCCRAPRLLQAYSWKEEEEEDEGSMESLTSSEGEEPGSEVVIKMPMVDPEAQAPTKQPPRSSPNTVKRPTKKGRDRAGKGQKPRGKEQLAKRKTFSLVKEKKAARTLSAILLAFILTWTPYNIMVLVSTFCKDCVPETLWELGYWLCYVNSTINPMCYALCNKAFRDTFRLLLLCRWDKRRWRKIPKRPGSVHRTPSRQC

[5] = target: Cytochrome P450 2D6 (Homo sapiens, UniProt P10635); assay: Inhibition of recombinant CYP2D6 after 30 mins by fluorescence assay
[6] = target: T1, Voltage-gated inwardly rectifying potassium channel KCNH2; assay: Inhibition of human ERG expressed in HEK cells assessed as blockade of potassium tail current by standard patch clamp analysis
[7] = test system: Rattus norvegicus; assay: Effect on sleep-awake pattern in CD IGS rat model of insomnia assessed as latency to REM sleep at 30 mg/kg, po by EEG/EMG study relative to control; type: functional
[8] = test system: Rattus norvegicus; assay: Effect on sleep-awake pattern in CD IGS rat model of insomnia assessed as longest 3 REM bouts at 30 mg/kg, po after 6 hrs by EEG/EMG study relative to control; type: functional
[9] = test system: Rattus norvegicus; assay: Increase in REM sleep in CD IGS rat model of insomnia at 30 mg/kg, po after 4 hrs by EEG/EMG study relative to control; type: functional
[10] = test system: Rattus norvegicus; assay: Increase in NREM sleep in CD IGS rat model of insomnia at 30 mg/kg, po after 4 hrs by EEG/EMG study relative to control; type: functional
[11] = test system: Rattus norvegicus; assay: Effect on sleep-awake pattern in CD IGS rat model of insomnia assessed as latency to NREM sleep at 30 mg/kg, po by EEG/EMG study relative to control; type: functional
[12] = test system: Rattus norvegicus; assay: Effect on sleep-awake pattern in CD IGS rat model of insomnia assessed as longest 3 NREM bouts at 30 mg/kg, po after 6 hrs by EEG/EMG study relative to control; type: functional

Sequence of Cytochrome P450 2D6 (P10635 whole entry): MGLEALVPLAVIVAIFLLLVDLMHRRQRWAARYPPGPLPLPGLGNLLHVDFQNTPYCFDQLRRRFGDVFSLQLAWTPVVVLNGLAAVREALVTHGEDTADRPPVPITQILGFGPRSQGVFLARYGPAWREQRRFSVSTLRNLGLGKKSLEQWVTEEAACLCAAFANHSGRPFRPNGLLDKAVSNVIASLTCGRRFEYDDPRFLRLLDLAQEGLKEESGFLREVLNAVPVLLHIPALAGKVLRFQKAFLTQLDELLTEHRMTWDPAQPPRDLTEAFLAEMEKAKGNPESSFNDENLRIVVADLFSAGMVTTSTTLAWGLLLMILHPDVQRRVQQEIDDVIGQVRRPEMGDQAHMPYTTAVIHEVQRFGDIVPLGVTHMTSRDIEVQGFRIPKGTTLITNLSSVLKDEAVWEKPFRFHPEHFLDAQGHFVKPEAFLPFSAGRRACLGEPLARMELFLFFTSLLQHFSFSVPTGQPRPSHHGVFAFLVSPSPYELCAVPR
Sequence of Histamine H1 receptor (P35367 whole entry): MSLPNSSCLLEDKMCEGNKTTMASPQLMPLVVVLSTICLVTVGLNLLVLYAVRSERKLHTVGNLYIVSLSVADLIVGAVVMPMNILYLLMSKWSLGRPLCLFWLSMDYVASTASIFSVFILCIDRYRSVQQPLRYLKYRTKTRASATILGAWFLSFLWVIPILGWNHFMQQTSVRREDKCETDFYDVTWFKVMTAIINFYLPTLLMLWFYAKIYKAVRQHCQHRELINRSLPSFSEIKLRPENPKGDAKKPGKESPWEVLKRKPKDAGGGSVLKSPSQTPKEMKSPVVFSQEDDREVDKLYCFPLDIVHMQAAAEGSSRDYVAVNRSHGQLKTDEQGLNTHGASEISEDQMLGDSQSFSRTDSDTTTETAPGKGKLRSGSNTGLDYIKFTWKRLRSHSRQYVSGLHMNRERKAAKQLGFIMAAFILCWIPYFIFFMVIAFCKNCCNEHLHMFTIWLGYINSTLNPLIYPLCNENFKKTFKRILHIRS
T1 sequence (Q12809 whole entry): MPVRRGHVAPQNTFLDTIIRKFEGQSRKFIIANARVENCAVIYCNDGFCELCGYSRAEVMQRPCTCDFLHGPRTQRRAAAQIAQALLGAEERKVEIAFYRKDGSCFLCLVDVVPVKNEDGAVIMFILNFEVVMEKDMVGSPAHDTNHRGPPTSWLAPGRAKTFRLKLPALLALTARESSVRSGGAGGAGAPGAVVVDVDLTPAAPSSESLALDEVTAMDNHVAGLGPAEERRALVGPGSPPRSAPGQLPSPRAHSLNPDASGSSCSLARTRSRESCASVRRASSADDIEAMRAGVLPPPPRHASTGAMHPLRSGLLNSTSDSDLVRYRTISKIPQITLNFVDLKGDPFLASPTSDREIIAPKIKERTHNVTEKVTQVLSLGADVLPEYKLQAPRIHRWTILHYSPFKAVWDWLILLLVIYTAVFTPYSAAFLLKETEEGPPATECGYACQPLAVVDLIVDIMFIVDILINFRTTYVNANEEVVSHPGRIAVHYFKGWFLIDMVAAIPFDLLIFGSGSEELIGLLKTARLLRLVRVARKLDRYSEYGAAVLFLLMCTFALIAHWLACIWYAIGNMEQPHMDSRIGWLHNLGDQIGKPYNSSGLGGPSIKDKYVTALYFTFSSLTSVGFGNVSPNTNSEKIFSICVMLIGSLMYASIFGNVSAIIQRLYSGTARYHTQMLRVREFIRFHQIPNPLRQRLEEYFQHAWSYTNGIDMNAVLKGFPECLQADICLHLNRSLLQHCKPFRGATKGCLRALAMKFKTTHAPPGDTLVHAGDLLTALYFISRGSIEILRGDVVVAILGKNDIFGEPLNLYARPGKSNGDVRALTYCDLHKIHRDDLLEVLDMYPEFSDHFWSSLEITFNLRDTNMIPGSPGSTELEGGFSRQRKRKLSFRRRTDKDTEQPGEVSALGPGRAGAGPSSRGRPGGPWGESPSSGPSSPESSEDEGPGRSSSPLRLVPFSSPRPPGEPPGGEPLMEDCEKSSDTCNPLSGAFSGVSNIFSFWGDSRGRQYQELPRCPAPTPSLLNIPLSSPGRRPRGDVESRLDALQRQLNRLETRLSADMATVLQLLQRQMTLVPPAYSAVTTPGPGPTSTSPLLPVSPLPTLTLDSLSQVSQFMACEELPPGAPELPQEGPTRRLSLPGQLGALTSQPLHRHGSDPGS
Sequence of Cytochrome P450 3A4 (P08684 whole entry): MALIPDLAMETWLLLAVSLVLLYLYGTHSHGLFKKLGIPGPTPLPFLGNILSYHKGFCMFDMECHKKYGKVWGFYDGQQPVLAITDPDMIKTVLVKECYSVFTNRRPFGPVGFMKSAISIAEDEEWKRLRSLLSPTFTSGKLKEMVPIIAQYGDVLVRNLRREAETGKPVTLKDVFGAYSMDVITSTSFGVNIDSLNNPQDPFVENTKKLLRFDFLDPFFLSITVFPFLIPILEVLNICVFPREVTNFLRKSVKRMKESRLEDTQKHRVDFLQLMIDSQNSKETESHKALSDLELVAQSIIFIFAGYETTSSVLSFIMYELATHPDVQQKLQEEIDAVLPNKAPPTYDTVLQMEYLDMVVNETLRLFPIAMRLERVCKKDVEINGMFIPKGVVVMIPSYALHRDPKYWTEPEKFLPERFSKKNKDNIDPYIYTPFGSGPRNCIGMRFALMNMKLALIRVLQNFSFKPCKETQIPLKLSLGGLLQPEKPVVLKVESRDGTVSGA

Compound `CC(c1cccc(F)n1)c1c(CCN(C)C)sc2ccccc12` (racemic) has an IC50 [1] of over 10 µM, a Ki [2] of over 5 µM and a Ki ([3]; read-out: Ki) of 0.038 µM. It also gave a Ki ([4]; read-out: Ki) of over 10 µM.

Work on `CC(c1nccs1)c1c(CCN(C)C)sc2ccccc12` (racemic) yielded an IC50 [1] of over 10 µM, a Ki [2] of over 5 µM and a Ki ([3]; read-out: Ki) of 0.035 µM. It also gave a Ki ([4]; read-out: Ki) of 2.07 µM.

With `C[C@@H](c1ccccn1)c1c(CCN2CCCC2)sc2ccccc12` the IC50 [1] was over 10 µM, the IC50 [5] was 2.7 µM and the Ki [2] was 1.1 µM. The Ki [3] was 0.0061 µM and the Ki ([4]; read-out: Ki) was 5.8 µM.

Compound `CNCCc1sc2ccccc2c1[C@@H](C)c1ccccn1` has an IC50 [1] of over 10 µM, an IC50 [6] of 6.5 µM and an IC50 [5] of 9.8 µM. It also gave a Ki [2] of over 5 µM, a Ki ([3]; read-out: Ki) of 0.032 µM and a Ki [4] of 3.7 µM.

`C[C@@H](c1ccccn1)c1c(CCN2CCC2)sc2ccccc12` was tested, and the IC50 [1] was over 10 µM, the IC50 [6] was 0.73 µM and the IC50 [5] was over 10 µM. It also gave a Ki [2] of 4.2 µM, a Ki ([3]; read-out: Ki) of 0.0039 µM and a Ki ([4]; read-out: Ki) of over 10 µM.

In the case of `Cc1ccc(C(C)c2c(CCN(C)C)sc3ccccc23)cn1` (racemic), the IC50 [1] is reported as over 10 µM, the Ki [2] is reported as over 5 µM and the Ki ([3]; read-out: Ki) is reported as 0.069 µM. The Ki ([4]; read-out: Ki) was over 10 µM.

With `Cc1ccnc(C(C)c2c(CCN(C)C)sc3ccccc23)c1` (racemic) the IC50 [1] was over 10 µM, the Ki [2] was over 5 µM and the Ki ([3]; read-out: Ki) was 0.39 µM. For the same compound, the Ki ([4]; read-out: Ki) was over 10 µM.

With `CC(c1c(CCN(C)C)sc2ccccc12)n1ccnc1` (racemic) the IC50 [1] was 5.2 µM, the Ki [2] was over 5 µM and the Ki ([3]; read-out: Ki) was 0.122 µM.

Compound `C[C@@H](c1ccc(F)cn1)c1c(CCN(C)C)sc2ccccc12` has an IC50 [1] of over 10 µM, an IC50 [6] of 0.24 µM and an IC50 [5] of over 10 µM. For the same compound, the Ki [2] was 2.5 µM, the Ki ([3]; read-out: Ki) was 0.013 µM and the Ki ([4]; read-out: Ki) was over 10 µM.

For `Cc1ccc(-c2nc3ccc(C)cn3c2CC(=O)N(C)C)cc1` [ZOLPIDEM], the Activity [7] was 101 min, the Activity [8] was 1.2 min and the Activity [9] was 2.3%. For the same compound, the Activity [10] was 47.8%, the Activity [11] was 6 min and the Activity [12] was 14.5 min.

Compound `CC(c1ccccn1)c1c(CCN(C)C)sc2ccccc12` (racemic) has an IC50 [1] of over 10 µM, an IC50 [5] of 6.9 µM and a Ki [2] of over 5 µM. It also gave a Ki ([3]; read-out: Ki) of 0.012 µM and a Ki ([4]; read-out: Ki) of 1.4 µM.

`C[C@@H](c1cncs1)c1c(CCN(C)C)sc2ccccc12` was tested, and the IC50 [1] was over 10 µM, the Ki [2] was over 5 µM and the Ki ([3]; read-out: Ki) was 0.0052 µM. The Ki ([4]; read-out: Ki) was over 10 µM.

`COc1ccc(C(C)c2c(CCN(C)C)sc3ccccc23)cn1` (racemic) was tested, and the IC50 [1] was over 10 µM, the Ki [2] was over 5 µM and the Ki ([3]; read-out: Ki) was 0.12 µM. It also gave a Ki ([4]; read-out: Ki) of over 10 µM.

Compound `C[C@@H](c1ncccc1F)c1c(CCN(C)C)sc2ccccc12` has an IC50 [1] of over 10 µM, an IC50 [6] of 0.33 µM and an IC50 [5] of 4 µM. For the same compound, the Ki [2] was over 5 µM, the Ki ([3]; read-out: Ki) was 0.0027 µM and the Ki ([4]; read-out: Ki) was 2.2 µM.
